From PubChem BioAssay (NCI)
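48-hour exposure; five concentrations; linearly interpolated endpoints. GI50: concentration for 50% inhibition of growth. Definition used: TGI = concentration required for complete inhibition of growth.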

Experiments:
Test in all cases: NCI-60 cell line screen, 48 h
[1] = system: OVCAR-8 ovarian
[2] = system: UACC-257 melanoma
[3] = system: SNB-19 CNS
[4] = system: HCT-116 colon
[5] = system: OVCAR-3 ovarian
[6] = system: HT29 colon
[7] = system: K-562 leukemia
[8] = system: SR leukemia
[9] = system: HCC-2998 colon
[10] = system: SW-620 colon
[11] = system: SK-MEL-2 melanoma
[12] = system: OVCAR-4 ovarian
[13] = system: MDA-MB-231 breast
[14] = system: BT-549 breast
[15] = system: UACC-62 melanoma
[16] = system: CCRF-CEM leukemia
[17] = system: U251 CNS
[18] = system: NCI-H226 lung
[19] = system: SNB-75 CNS
[20] = system: NCI-H522 lung
[21] = system: CAKI-1 renal
[22] = system: RPMI-8226 leukemia
[23] = system: HOP-62 NSCLC
[24] = system: MCF7 breast
[25] = system: RXF 393 renal
[26] = system: SN12C renal
[27] = system: SK-OV-3 ovarian
[28] = system: NCI/ADR-RES ovarian
[29] = system: 786-0 renal
[30] = system: EKVX NSCLC
[31] = system: MDA-MB-435
[32] = system: KM12 colon
[33] = system: A498 renal
[34] = system: HCT-15 colon
[35] = system: IGROV1 ovarian
[36] = system: ACHN renal
[37] = system: SF-268 CNS
[38] = system: MOLT-4 leukemia
[39] = system: TK-10 renal
[40] = system: LOX IMVI melanoma
[41] = system: HS 578T breast
[42] = system: M14 melanoma
[43] = system: OVCAR-5 ovarian
[44] = system: NCI-H23 lung
[45] = system: HL-60(TB) leukemia
[46] = system: DU-145 prostate
[47] = system: UO-31 renal
[48] = system: NCI-H460 lung
[49] = system: COLO 205 colon
[50] = system: A549 NSCLC
[51] = system: SF-539 CNS
[52] = system: PC-3 prostate
[53] = system: SK-MEL-5 melanoma
[54] = system: HOP-92 NSCLC
[55] = system: SK-MEL-28 melanoma
[56] = system: MALME-3M melanoma
[57] = system: SF-295 CNS
[58] = system: T-47D breast

[O]=[Sn]([CH]1CCCCC1)[CH]1CCCCC1
GI50 [1]: 298 nM | TGI [1]: 1170 nM | GI50 [2]: 133 nM | TGI [2]: 384 nM | GI50 [3]: 271 nM | TGI [3]: 950 nM | GI50 [4]: 152 nM | TGI [4]: 320 nM | GI50 [5]: 203 nM | TGI [5]: 549 nM | GI50 [6]: 298 nM | TGI [6]: 866 nM | GI50 [7]: 117 nM | GI50 [8]: 312 nM | TGI [8]: 1710 nM | GI50 [9]: 245 nM | TGI [9]: 693 nM | GI50 [10]: 93.4 nM | TGI [10]: 238 nM | GI50 [11]: 108 nM | TGI [11]: 284 nM | GI50 [12]: 342 nM | TGI [12]: 1460 nM | GI50 [13]: 280 nM | TGI [13]: 1040 nM | GI50 [14]: 229 nM | TGI [14]: 588 nM | GI50 [15]: 208 nM | TGI [15]: 743 nM | GI50 [16]: 48.8 nM | TGI [16]: 774 nM | GI50 [17]: 51.4 nM | TGI [17]: 200 nM | GI50 [18]: 229 nM | TGI [18]: 657 nM | GI50 [19]: 158 nM | TGI [19]: 562 nM | GI50 [20]: 71.1 nM | TGI [20]: 217 nM | GI50 [21]: 145 nM | TGI [21]: 341 nM | GI50 [22]: 188 nM | TGI [22]: 718 nM | GI50 [23]: 407 nM | TGI [23]: 1540 nM | GI50 [24]: 84.9 nM | GI50 [25]: 96.2 nM | TGI [25]: 241 nM | GI50 [26]: 315 nM | TGI [26]: 1230 nM | GI50 [27]: 1200 nM | TGI [27]: 2520 nM | GI50 [28]: 357 nM | TGI [28]: 1630 nM | GI50 [29]: 214 nM | TGI [29]: 456 nM | GI50 [30]: 225 nM | TGI [30]: 1200 nM | GI50 [31]: 218 nM | TGI [31]: 833 nM | GI50 [32]: 341 nM | TGI [32]: 1250 nM | GI50 [33]: 167 nM | TGI [33]: 451 nM | GI50 [34]: 197 nM | TGI [34]: 691 nM | GI50 [35]: 274 nM | TGI [35]: 915 nM | GI50 [36]: 309 nM | TGI [36]: 1120 nM | GI50 [37]: 214 nM | TGI [37]: 654 nM | GI50 [38]: 273 nM | GI50 [39]: 267 nM | TGI [39]: 1140 nM | GI50 [40]: 123 nM | TGI [40]: 297 nM | GI50 [41]: 266 nM | TGI [41]: 1520 nM | GI50 [42]: 239 nM | TGI [42]: 677 nM | GI50 [43]: 620 nM | TGI [43]: 1710 nM | GI50 [44]: 198 nM | TGI [44]: 591 nM | GI50 [45]: 248 nM | TGI [45]: 1550 nM | GI50 [46]: 259 nM | TGI [46]: 839 nM | GI50 [47]: 293 nM | TGI [47]: 1080 nM | GI50 [48]: 389 nM | TGI [48]: 1430 nM | GI50 [49]: 249 nM | TGI [49]: 731 nM | GI50 [50]: 1400 nM | TGI [50]: 2890 nM | GI50 [51]: 240 nM | TGI [51]: 710 nM | GI50 [52]: 517 nM | TGI [52]: 1940 nM | GI50 [53]: 259 nM | TGI [53]: 1140 nM | GI50 [54]: 251 nM | TGI [54]: 1200 nM | GI50 [55]: 279 nM | TGI [55]: 1140 nM | GI50 [56]: 173 nM | TGI [56]: 555 nM | GI50 [57]: 319 nM | TGI [57]: 1350 nM

CCCS(=O)(=O)Nc1ccc(F)c(C(=O)c2c[nH]c3ncc(-c4ccc(OCCCC5CCCCN5)nc4)cc23)c1F (stereo not given)
GI50 [1]: 9630 nM | TGI [1]: > 100000 nM | GI50 [2]: 13.6 nM | TGI [2]: 96.7 nM | GI50 [9]: > 100000 nM | TGI [9]: > 100000 nM | GI50 [26]: 2140 nM | TGI [26]: > 100000 nM | GI50 [27]: 875 nM | TGI [27]: > 100000 nM | GI50 [28]: > 100000 nM | TGI [28]: > 100000 nM | GI50 [30]: > 100000 nM | TGI [30]: > 100000 nM | GI50 [31]: 30 nM | TGI [31]: > 100000 nM | GI50 [34]: > 100000 nM | TGI [34]: > 100000 nM | GI50 [35]: 865 nM | TGI [35]: > 100000 nM | GI50 [36]: 16900 nM | TGI [36]: > 100000 nM | GI50 [39]: 7790 nM | TGI [39]: > 100000 nM | GI50 [41]: 493 nM | TGI [41]: 2820 nM | GI50 [58]: 1280 nM | TGI [58]: 10700 nM | GI50 [47]: > 100000 nM | TGI [47]: > 100000 nM | GI50 [50]: > 100000 nM | TGI [50]: > 100000 nM | GI50 [57]: 3970 nM | TGI [57]: > 100000 nM
